From US10844102B2, “Peptides, compositions, and methods for stimulating subcutaneous adipogenesis” (The Regents of the University of California, priority 2014, dated 2020)

Experiments:
[1] = tested on: rat mesenchymal stem cells; test: Assay 2: adipogenesis, Oil Red O staining (differentiation of pre-adipocytes into adipocytes); assay type: cell-based; conditions: for adipogenic activity in Assay 2: Assay 2, Oil Red O, concentration not given; for adipogenesis quantified by Oil Red O staining, fold change relative to the negative control: three weeks
Experimental: Reagents: The Dexamethasone, IBMX, Insulin, and Oil Red O Solutions were the same as described above for assay 1. Indomethacin Solution contained 10 mM indomethacin in methanol.
Adipogenesis Maintenance Media was prepared as described above.
Adipogenesis Induction Media: To prepare 501.5 mL of Adipogenesis Induction Media, 50 μL of the 10 mM stock Dexamethasone Solution, 500 μL of the 0.5 M IBMX stock solution, 500 μL of the 10 mg/ml stock Insulin Solution, 5 ml of a 10 mM stock Indomethacin Solution, and 5 mL of a 100× stock solution of penicillin and streptomycin were added to 490 mL of mesenchymal stem cell expansion media.
Pre-adipocyte stem cells, bone marrow mesenchymal stem cells or fibroblasts such as dermal reticular and papillary fibroblasts were propagated using standard tissue culture methods. Cells were trypsinized to remove cells from the substratum, the trypsin was neutralized, and cells were counted using a hemocytometer. Cells were resuspended at 20,000 cells/ml in DMEM containing 10% calf serum. 1 mL of cell suspension per well was plated in a 48-well plate, with several wells left empty for blank well (blank control) staining.
Cells were incubated for 2 days overnight and had reached confluency at this point. Media was removed from each well and replaced with 0.5 ml Adipogenesis Induction Media. For negative control (no insulin, no peptide) wells, expansion medium only was used at this step and for subsequent media changes. For all media changes, media was replaced as gently as possible to avoid disturbing the monolayer.
Cells were incubated for 72 hours at 37° C., 5% CO2. Media was removed and replaced with 0.5 ml of Adipogenesis Maintenance Media containing either RHAMM antagonist peptides (experimental group) or insulin (concentration as in the Adipogenesis Induction Media and used as a positive control). Cells were incubated for at least 96 hours in this media at 37° C., 5% CO2. Media was replaced every 48 hours and experiments were terminated between seven and fourteen days after addition of insulin or peptides.
Media was removed and Oil Red O staining was performed as described above for assay 1.
Assay 1 is an assay that promotes transdifferentiation of fibroblasts into adipocytes, whereas Assay 2 promotes differentiation of multi-potential mesenchymal progenitor cells into adipocytes. Immortalized rat bone marrow mesenchymal stem cells were used for both assays. These cells contain cells of different lineages, including fibroblasts, pre-adipocytes, pre-chondrocytes and pre-osteoblasts. Thus, Assay 1 was used to promote transdifferentiation of fibroblast lineages into adipocytes and Assay 2 was used to promote differentiation of the pre-adipocytes into adipocytes.
As described in Example 1 above, the priming stimulus for Assay 1 includes IBMX (3-isobutyl-1-methylxanthine) and dexamethasone, and then insulin as the final adipogenic stimulus. The priming stimulus for assay 2 includes IBMX, dexamethasone and indomethacin, and then insulin as the final adipogenic stimulus.
Adipogenesis was quantified by Oil Red O staining. The peptide was tested at concentrations of 5 and 50 μg/ml over a period of three weeks. Cells were plated in 48-well culture plates, and the purity of the peptides was >95%. All data are presented as the fold change relative to the negative control (Ctr(−))±standard error. The KSEVSK 6-mer (SEQ ID NO: 7) was used as a positive control.

3T3L cells = test: Adiponectin ELISA on supernatant medium of primed 3T3L cells; assay type: cell-based, mouse; conditions: 10 μg/ml peptide, versus no insulin control
Experimental: 3T3L cells were cultured in T75 culture flasks, in expansion medium (Millipore Corporation), and stored in a 5% CO2 humidified incubator at 37° C. Media was changed every two days until the cells reached 80% confluency. Cells were subcultured in a 96 well plate with a seeding density of 3×10^4 cells per cm^2.
Once cells had just reached confluency, expansion media was replaced with 0.5 mL of Adipogenic Induction Media per well containing 5% serum that had been screened for an ability to maintain stem cells in an undifferentiated state (LifeTechnologies). Cells were incubated for 48 hours at 37° C., 5% CO2. The Adipogenic Induction Media contained DMEM (low glucose, Gibco) +5% serum (LifeSciences) with 0.5 mM IBMX solution, 1 μM Dexamethasone Solution, and 100 μM Indomethacin Solution (priming stimulus). After 48 hr the Adipogenic Induction media was replaced with new media containing 10 μg/ml insulin alone (positive control), or 10 μg/ml peptide (experimental conditions). Negative controls were DMEM +5% serum only. Plates were incubated for two days prior to adiponectin ELISA analyses. Peptides were added daily at 10 μg/ml throughout the remainder of the experiment.
Adiponectin present in the supernatant medium was measured using a mouse adiponectin ELISA (Novex, LifeTechnologies). Briefly, supernatant medium was collected and diluted 1:100. One hundred microliters of the diluted supernatant medium was added to each well of the ELISA plate and incubated for one hour at 37° C. Wells were washed three times with 1× wash buffer and then 100 μl of antibody was added to each well and incubated for one hour at 37° C. The wells were then washed and incubated with 100 μl detector antibody for 1 hr at 37° C. The wells were washed five times with wash buffer and 100 μl of substrate solution was added to each well and incubated for twenty minutes in the dark. The reaction was then stopped by the addition of 100 μl stop solution. Plates were read at 450 nm and concentrations of adiponectin were derived from a standard curve included in the ELISA plate.
Insulin and the KSEVSK peptide (SEQ ID NO: 7) served as positive controls. […] In FIG. 7, values marked by asterisks represent significant changes relative to the no insulin control (i.e., the negative control) using a two-tailed Student's T test, p<0.05.

[2] = tested on: mammary fat pads of aged female rats; test: In vivo adipogenesis in mammary fat pads of aged female rats (microCT); design: species or system rat; conditions: eight-month-old female rats, 100 μg peptide in 100 μl collagen gel, 7 days, versus collagen only
Experimental: Peptides were also tested for their ability to stimulate adipogenesis in mammary fat pads of aged (8 month old) female rats in vivo. Mammary fat pads are rich in adipocyte progenitor cells.
Eight-month-old female Sprague Dawley rats (retired breeders) were injected with 100 μl collagen gel (Vitrogen) containing 100 μg peptide into the fourth right mammary fat pad, as depicted in FIG. 10. […] The collagen and peptides were injected at the top of the ROI nearest the nipple. The collagen and peptide diffuse into the fat pad following injection and active peptides target RHAMM-positive progenitor cells present in the fat pad. Collagen alone was injected into the fourth left mammary fat pad as a negative control.
Following injection of the collagen and peptide or collagen alone, animals were maintained on rat chow and water for 7 days and then euthanized. Micro-computed tomography (microCT) imaging of the […] was performed on animals using a Locus Ultra scanner (GE Healthcare, London, ON, Canada). The animals were imaged ex vivo with an X-ray tube voltage of 80 kV and a tube current of 55 mA. Nine hundred projections of data were acquired at an angular increment of 0.4 degrees around the rat in an exposure time of 16 ms. The data were then reconstructed into a 3D volume image with a voxel size of 154 μm. The subcutaneous mammary fat measured in 10×5×3 mm rectangular area (the region of interest (ROI)) below the nipple, avoiding measurement of underlying visceral fat (see the region labeled “fat pad” in FIG. 11). The amount of fat in the ROI was calculated as mass (mg) per ROI.

Row | Substance | adipogenic activity in Assay 2 [1] | adipogenic activity in the adiponectin assay (adiponectin secretion) (3T3L cells) | adipogenesis in vivo in mammary fat pads [2] | adipogenic activity in the adiponectin assay (adiponectin secretion) (3T3L cells; listed as KTRASHHV) | adipogenesis in vivo in mammary fat pads ([2]; listed as KTRASHHV) | adipogenesis quantified by Oil Red O staining, fold change relative to the negative control ([1]; Assay 2, peptide 5 μg/ml) | adipogenesis quantified by Oil Red O staining, fold change relative to the negative control ([1]; Assay 2, peptide 50 μg/ml) | specific activity among the 9-mer, 7-mer and 6-mer fragments ([1]; Assay 2)
1 | KLKDENSQLR (listed as Erinaceus europaeus) | promising results | not subsequently shown to be adipogenic | not subsequently shown to be adipogenic |  |  |  |  | 
2 | KTRAHHV (listed as Paenibacillus polymyxa) | ablated adipogenic activity | lack an ability to promote adipogenesis | induce adipogenesis in vivo | did not exhibit adipogenic activity | able to induce adipogenesis in vivo |  |  | 
3 | KLKDENSQLK (listed as Homo sapiens) | exhibited activity | exhibited activity | exhibited activity |  |  | significant increase in adipogenesis | significant increase in adipogenesis | 
4 | KSEVSK (listed as Homo sapiens) [reference compound] | exhibit adipogenic activity |  | mammary fat pad enlargement |  |  |  |  | highest specific activity
